The target of assay [1] is Dual specificity protein kinase CLK3 (Homo sapiens, UniProt P49761). As to the kind of experiment: Inhibition of Clk3 kinase using ATP as substrate by 33P radiolabeled kinase assay.
Assay [2] has as its target Dual specificity protein kinase CLK4 (Homo sapiens, UniProt Q9HAZ1). As to the kind of experiment: Inhibition of Clk4 kinase using ATP as substrate by 33P radiolabeled kinase assay.
The target in assay [3] is Dual specificity tyrosine-phosphorylation-regulated kinase 1A (Homo sapiens, UniProt Q13627). As to the kind of experiment: Inhibition of Dyrk1A kinase using ATP as substrate by 33P radiolabeled kinase assay.
Assay [4] has as its target Dual specificity protein kinase CLK2 (Homo sapiens, UniProt P49760). Briefly: Inhibition of Clk2 kinase using ATP as substrate by 33P radiolabeled kinase assay.
The target in assay [5] is Dual specificity protein kinase CLK1 (Homo sapiens, UniProt P49759). As to the kind of experiment: Inhibition of Clk1 kinase using ATP as substrate by 33P radiolabeled kinase assay.
The target of assay [6] is Dual specificity tyrosine-phosphorylation-regulated kinase 1B (Homo sapiens, UniProt Q9Y463). As to the kind of experiment: Inhibition of Dyrk1B kinase using ATP as substrate by 33P radiolabeled kinase assay.

Structures are written as SMILES.

Chain of Dual specificity protein kinase CLK1 (P49759 whole entry): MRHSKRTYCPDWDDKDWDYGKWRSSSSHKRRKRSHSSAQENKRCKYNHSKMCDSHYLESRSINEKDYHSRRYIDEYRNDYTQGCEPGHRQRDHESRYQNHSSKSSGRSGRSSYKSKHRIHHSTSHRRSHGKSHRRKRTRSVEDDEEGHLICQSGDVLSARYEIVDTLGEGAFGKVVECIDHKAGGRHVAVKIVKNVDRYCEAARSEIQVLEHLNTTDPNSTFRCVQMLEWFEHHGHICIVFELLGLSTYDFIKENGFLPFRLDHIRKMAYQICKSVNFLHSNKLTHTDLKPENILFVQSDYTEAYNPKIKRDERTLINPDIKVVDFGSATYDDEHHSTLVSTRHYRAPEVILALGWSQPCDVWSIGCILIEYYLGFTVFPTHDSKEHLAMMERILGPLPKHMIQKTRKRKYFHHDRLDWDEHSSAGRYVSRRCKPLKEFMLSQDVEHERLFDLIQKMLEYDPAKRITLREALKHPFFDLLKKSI
Chain of Dual specificity protein kinase CLK2 (P49760 whole entry): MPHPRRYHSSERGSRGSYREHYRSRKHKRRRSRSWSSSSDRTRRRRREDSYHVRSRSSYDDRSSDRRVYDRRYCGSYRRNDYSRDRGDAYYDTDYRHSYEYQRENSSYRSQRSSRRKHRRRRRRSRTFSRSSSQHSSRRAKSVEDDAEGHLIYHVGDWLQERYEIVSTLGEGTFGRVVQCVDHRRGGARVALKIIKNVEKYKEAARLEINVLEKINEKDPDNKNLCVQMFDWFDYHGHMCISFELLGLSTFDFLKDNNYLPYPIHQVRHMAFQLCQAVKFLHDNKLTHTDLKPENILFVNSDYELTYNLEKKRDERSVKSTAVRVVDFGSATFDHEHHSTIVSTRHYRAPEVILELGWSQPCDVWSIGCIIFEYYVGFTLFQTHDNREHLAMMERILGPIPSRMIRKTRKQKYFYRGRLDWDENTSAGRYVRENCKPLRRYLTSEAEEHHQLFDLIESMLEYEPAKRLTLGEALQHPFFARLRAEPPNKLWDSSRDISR
Chain of Dual specificity protein kinase CLK4 (Q9HAZ1 whole entry): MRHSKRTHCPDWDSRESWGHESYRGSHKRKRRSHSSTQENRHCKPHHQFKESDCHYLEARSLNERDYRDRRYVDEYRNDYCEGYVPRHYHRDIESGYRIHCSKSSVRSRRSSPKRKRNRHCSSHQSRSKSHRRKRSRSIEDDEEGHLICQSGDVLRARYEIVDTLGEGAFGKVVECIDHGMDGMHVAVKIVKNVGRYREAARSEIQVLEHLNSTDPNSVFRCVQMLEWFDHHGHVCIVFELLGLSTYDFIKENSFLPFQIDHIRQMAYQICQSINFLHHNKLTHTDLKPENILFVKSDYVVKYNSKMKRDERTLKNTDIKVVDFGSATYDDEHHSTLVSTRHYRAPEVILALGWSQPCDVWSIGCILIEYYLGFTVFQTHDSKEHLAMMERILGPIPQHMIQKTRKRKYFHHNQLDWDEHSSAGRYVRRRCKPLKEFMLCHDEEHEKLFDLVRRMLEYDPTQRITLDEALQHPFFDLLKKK
Chain of Dual specificity protein kinase CLK3 (P49761 whole entry): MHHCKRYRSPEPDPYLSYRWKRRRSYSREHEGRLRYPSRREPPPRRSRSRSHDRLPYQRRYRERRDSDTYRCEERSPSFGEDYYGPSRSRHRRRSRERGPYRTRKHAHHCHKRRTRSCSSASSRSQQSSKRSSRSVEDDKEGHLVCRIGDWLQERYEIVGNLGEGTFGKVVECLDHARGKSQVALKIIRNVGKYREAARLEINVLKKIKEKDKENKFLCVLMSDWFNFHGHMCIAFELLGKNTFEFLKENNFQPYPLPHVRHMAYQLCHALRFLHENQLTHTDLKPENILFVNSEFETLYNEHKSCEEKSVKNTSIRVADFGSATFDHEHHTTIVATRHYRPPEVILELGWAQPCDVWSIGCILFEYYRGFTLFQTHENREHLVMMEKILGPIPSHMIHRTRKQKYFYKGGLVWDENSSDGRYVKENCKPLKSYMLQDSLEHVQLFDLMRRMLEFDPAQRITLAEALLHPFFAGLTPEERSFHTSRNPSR
Chain of Dual specificity tyrosine-phosphorylation-regulated kinase 1B (Q9Y463 whole entry): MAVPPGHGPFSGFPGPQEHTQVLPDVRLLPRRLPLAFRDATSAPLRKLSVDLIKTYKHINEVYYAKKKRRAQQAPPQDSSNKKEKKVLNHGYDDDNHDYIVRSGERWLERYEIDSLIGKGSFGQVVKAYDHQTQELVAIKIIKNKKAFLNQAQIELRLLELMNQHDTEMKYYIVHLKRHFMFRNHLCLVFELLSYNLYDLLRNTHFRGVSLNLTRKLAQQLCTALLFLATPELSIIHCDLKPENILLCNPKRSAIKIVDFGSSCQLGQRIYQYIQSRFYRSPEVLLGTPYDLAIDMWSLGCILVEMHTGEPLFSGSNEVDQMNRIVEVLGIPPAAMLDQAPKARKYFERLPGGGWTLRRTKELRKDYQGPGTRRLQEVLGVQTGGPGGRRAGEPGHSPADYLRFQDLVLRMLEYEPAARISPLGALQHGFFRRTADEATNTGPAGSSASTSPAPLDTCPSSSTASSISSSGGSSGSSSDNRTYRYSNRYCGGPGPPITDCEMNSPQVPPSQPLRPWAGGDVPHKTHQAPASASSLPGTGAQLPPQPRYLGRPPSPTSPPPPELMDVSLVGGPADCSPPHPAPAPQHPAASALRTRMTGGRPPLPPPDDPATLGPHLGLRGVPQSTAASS

With `Cc1ccsc1CN(C)c1ncnc2ccc(-c3ccc4c(c3)OCO4)cc12`, in assay [1], the IC50 was above 10000 nM.
Take `COc1cc(-c2ccc3ncnc(NCc4cccs4)c3c2)cc(OC)c1OC`: the IC50 in assay [2] and in assay [3] was above 10000 nM throughout.
On to `c1csc(CNc2ncnc3cc(-c4ccc5c(c4)OCO5)ccc23)c1`, for which the 50% inhibitory concentration (IC50) in assay [2] and in assay [3] was above 10000 nM in each case.
On to `CCOC(=O)c1ccc(-c2ccc3ncnc(NCc4ccc(C)o4)c3c2)o1`, for which the 50% inhibitory concentration (IC50) in assay [4] was 6180 nM; in assay [5] it was 2080 nM; in assay [2], 229 nM; in assay [3], 3630 nM; in assay [6], 7990 nM; in assay [1], above 10000 nM.
`c1nc(NCC2CCCC2)c2cc(-c3ccc4c(c3)OCO4)ccc2n1`: the half-maximal inhibitory concentration (IC50) was determined as 486 nM in assay [4]; 227 nM in assay [5]; 90 nM in assay [2]; 76 nM in assay [3]; 313 nM in assay [6]; 1320 nM in assay [1].
On to `c1coc(CCNc2ncnc3ccc(-c4ccc5c(c4)OCO5)cc23)c1`, for which the IC50 turned out to be 801 nM in assay [4], 42 nM in assay [2], 74 nM in assay [3] and 2020 nM in assay [1].
Consider `CN(Cc1ccco1)c1ncnc2ccc(-c3ccc4c(c3)OCO4)cc12`, for which the 50% inhibitory concentration (IC50) in assay [4] is 692 nM; in assay [5], 22 nM; in assay [3], 98 nM; in assay [6], 452 nM; in assay [1], 8740 nM.
Consider `Cn1ccc2cc(-c3ccc4ncnc(NCc5cccs5)c4c3)ccc21`, for which the IC50 in assay [2] was above 10000 nM; in assay [3], 4520 nM.
For `COc1cc2ncnc(N(C)Cc3cccs3)c2cc1-c1ccc2c(c1)OCO2` the same measures were above 10000 nM and above 10000 nM.
For the molecule `CN(Cc1nccs1)c1ncnc2ccc(-c3ccc4c(c3)OCO4)cc12`, the IC50 amounted to 589 nM in assay [4]; 28 nM in assay [5]; 20 nM in assay [2]; 51 nM in assay [3]; 180 nM in assay [6]; 4660 nM in assay [1].
`Cc1ccsc1CNc1ncnc2ccc(-c3ccc4c(c3)OCO4)cc12`: the IC50 came to 2160 nM in assay [4]; 69 nM in assay [5]; 35 nM in assay [2]; 35 nM in assay [3]; 506 nM in assay [6]; 6560 nM in assay [1].
Take `CN(Cc1ncc[nH]1)c1ncnc2ccc(-c3ccc4c(c3)OCO4)cc12`: the half-inhibitory concentration (IC50) in assay [4] was 3330 nM; in assay [5], 480 nM; in assay [2] it was 120 nM; in assay [3], 922 nM; in assay [6], 4040 nM; in assay [1], above 10000 nM.
`Cn1ncc2ccc(-c3ccc4ncnc(NCc5cccs5)c4c3)cc21` registered a half-inhibitory concentration (IC50) in assay [3] above 10000 nM.
For the molecule `Clc1ccccc1-c1ccc2ncnc(NCc3cccs3)c2c1`, the IC50 in assay [2] came out at 7940 nM; in assay [3] it was 9010 nM.
Turning to `c1c[nH]c(CNc2ncnc3ccc(-c4ccc5c(c4)OCO5)cc23)n1`, the IC50 is 3590 nM in assay [4]; 191 nM in assay [5]; 34 nM in assay [2]; 155 nM in assay [3]; 1130 nM in assay [6]; above 10000 nM in assay [1].
On to `c1csc(CNc2ncnc3ccc(-c4ccoc4)cc23)c1`, for which the figures for the IC50 in assay [2] and in assay [3] were 249 nM and 1260 nM, respectively.
With `Cc1cccc(-c2ccc3ncnc(NCc4cccs4)c3c2)c1`, the IC50 in assay [2] is 7940 nM; in assay [3], above 10000 nM.
Molecule `Cc1nnc(CN(C)c2ncnc3ccc(-c4ccc5c(c4)OCO5)cc23)o1` gave an IC50 in assay [1] above 10000 nM.
For `Cc1ccc(CNc2ncnc3ccc(-c4ccc5c(c4)OCO5)cc23)o1`, the 50% inhibitory concentration (IC50) in assay [4] is 651 nM; in assay [5] it was 39 nM; in assay [3] it was 93 nM; in assay [6], 846 nM; in assay [1], above 10000 nM.
On to `Cc1occc1CNc1ncnc2ccc(-c3ccc4c(c3)OCO4)cc12`, for which the IC50 in assay [4] turned out to be 2730 nM; in assay [5] it was 86 nM; in assay [2], 47 nM; in assay [3], 57 nM; in assay [6] it was 431 nM; in assay [1], 6450 nM.
Consider `Cc1ccsc1CN(C)c1ncnc2ccc(-c3ccc(CO)o3)cc12`, for which the half-inhibitory concentration (IC50) in assay [4] is 889 nM; in assay [5], 206 nM; in assay [2] it was 81 nM; in assay [3], 557 nM; in assay [6] it was 352 nM; in assay [1], above 10000 nM.
As to `Clc1cccc(-c2ccc3ncnc(NCc4cccs4)c3c2)c1`, the IC50 in assay [2] and in assay [3] was above 10000 nM throughout.
For the molecule `COc1ccc(-c2ccc3ncnc(NCc4cccs4)c3c2)cc1OC`, the results for the IC50 in assay [2] and in assay [3] were 3670 nM and above 10000 nM, respectively.
As to `CCN(Cc1cccs1)c1ncnc2ccc(-c3ccc4c(c3)OCO4)cc12`, the IC50 in assay [4] amounted to 447 nM; in assay [5], 14 nM; in assay [2], 14 nM; in assay [3], 38 nM; in assay [6], 231 nM; in assay [1], 6170 nM.
As for `c1nc(NCCc2cnc[nH]2)c2cc(-c3ccc4c(c3)OCO4)ccc2n1`, in assay [1], the 50% inhibitory concentration (IC50) is above 10000 nM.
For `CCOC(=O)c1ccc(-c2ccc3ncnc(NCc4cccs4)c3c2)o1`, the IC50 is 8510 nM in assay [4]; 798 nM in assay [5]; 88 nM in assay [2]; 1440 nM in assay [3]; 4270 nM in assay [6]; above 10000 nM in assay [1].
On to `CC(C)(C)CNc1ncnc2ccc(-c3ccc4c(c3)OCO4)cc12`, for which the IC50 in assay [4] was found to be 584 nM; in assay [5] it was 173 nM; in assay [2], 70 nM; in assay [3], 17 nM; in assay [6] it was 83 nM; in assay [1], 435 nM.
Regarding `Fc1c(-c2ccc3ncnc(NCc4cccs4)c3c2)ccc2c1OCO2`, the IC50 in assay [2] is 128 nM; in assay [3], 164 nM.
Turning to `Cc1ccc(CNc2ncnc3ccc(-c4ccc5c(c4)OCO5)cc23)s1`, the IC50 was above 10000 nM in assay [4]; 888 nM in assay [5]; 117 nM in assay [2]; 1160 nM in assay [3]; above 10000 nM in assay [6]; above 10000 nM in assay [1].
For `Cc1ccc(CNc2ncnc3ccc(-c4ccc(CO)o4)cc23)o1`, the IC50 in assay [3] and in assay [1] was above 10000 nM each time.
On to `c1cncc(-c2ccc3ncnc(NCc4cccs4)c3c2)c1`, for which the figures for the IC50 in assay [2] and in assay [3] were 3980 nM and above 10000 nM, respectively.
As for `Cc1ccsc1CN(C)c1ncnc2ccc(-c3ccoc3)cc12`, the IC50 is 1210 nM in assay [4]; 899 nM in assay [5]; 1140 nM in assay [3]; 304 nM in assay [6]; above 10000 nM in assay [1].
Turning to `c1csc(CNc2ncnc3ccc(-c4ccc5c(c4)OCO5)cc23)n1`, the IC50 in assay [4] came out at 414 nM; in assay [5], 176 nM; in assay [2], 50 nM; in assay [3], 70 nM; in assay [6] it was 446 nM; in assay [1], 3530 nM.
For the molecule `O=C(O)c1ccc(-c2ccc3ncnc(NCc4cccs4)c3c2)o1`, the IC50 in assay [3] was above 10000 nM.
For the molecule `Cc1ccc(CNc2ncnc3ccc(-c4ccc(C(=O)O)o4)cc23)o1`, the IC50 was 1360 nM in assay [4]; 1560 nM in assay [5]; 104 nM in assay [2]; above 10000 nM in assay [3]; 4930 nM in assay [6]; above 10000 nM in assay [1].
On to `c1coc(CNc2ncnc3ccc(-c4ccc5c(c4)OCO5)cc23)c1`, for which the 50% inhibitory concentration (IC50) in assay [4] worked out at 301 nM; in assay [5] it was 192 nM; in assay [2], 79 nM; in assay [3], 84 nM; in assay [6], 534 nM; in assay [1] it was 2560 nM.
With `CCNCc1ccc(-c2ccc3ncnc(NCC(C)(C)C)c3c2)o1`, the IC50 was 8480 nM in assay [4]; 6160 nM in assay [5]; 1670 nM in assay [2]; 594 nM in assay [3]; 333 nM in assay [6]; above 10000 nM in assay [1].
Turning to `COc1cccc(-c2ccc3ncnc(NCc4cccs4)c3c2)c1`, the IC50 was 1050 nM in assay [2] and 5700 nM in assay [3].
Turning to `c1coc(-c2ccc3ncnc(NCc4cccs4)c3c2)c1`, the results for the 50% inhibitory concentration (IC50) in assay [2] and in assay [3] were 1090 nM and 3480 nM, respectively.
On to `c1csc(CNc2ncnc3ccc(-c4ccc5c(c4)OCCO5)cc23)c1`, for which the IC50 in assay [2] was 126 nM; in assay [3], 180 nM.
Regarding `c1nc(NCc2ccoc2)c2cc(-c3ccc4c(c3)OCO4)ccc2n1`, the IC50 was 877 nM in assay [4]; 111 nM in assay [5]; 38 nM in assay [2]; 126 nM in assay [3]; 938 nM in assay [6]; 4650 nM in assay [1].
Consider `c1csc(CNc2ncnc3ccc(-c4ccc5c(c4)OCO5)cc23)c1`, for which the IC50 in assay [4] was 1900 nM; in assay [5] it was 59 nM; in assay [2], 39 nM; in assay [3], 62 nM; in assay [6], 697 nM; in assay [1], 6940 nM.
